From ChEMBL document CHEMBL2157998, “Synthesis and biological evaluation of new phenothiazine derivatives bearing a pyrazole unit as protein farnesyltransferase inhibitors” (Bioorg Med Chem Lett, 2012)
Activity calls are given as the source filed them. The rule behind the calls is not given here.

Columns and labels:
[1] = system: CCRF-CEM; test: Growth inhibition of human CCRF-CEM cells at 10 uM after 48 hrs by single dose SRB assay; type: functional
[2] = system: MDA-MB-468; test: Growth inhibition of human MDA-MB-468 cells at 10 uM after 48 hrs by single dose SRB assay; type: functional; conditions: MDA-MB-468, 48 h, read-out: GI
[3] = system: SW-620; test: Growth inhibition of human SW620 cells at 10 uM after 48 hrs by single dose SRB assay; type: functional
[4] = system: LOX IMVI; test: Growth inhibition of human LOXIMVI cells at 10 uM after 48 hrs by single dose SRB assay; type: functional
[5] = system: SK-MEL-5; test: Growth inhibition of human SK-MEL-5 cells at 10 uM after 48 hrs by single dose SRB assay; type: functional; conditions: SK-MEL-5, 48 h, read-out: GI
[6] = system: U-251; test: Growth inhibition of human U251 cells at 10 uM after 48 hrs by single dose SRB assay; type: functional
[7] = system: OVCAR-8; test: Growth inhibition of human OVCAR8 cells at 10 uM after 48 hrs by single dose SRB assay; type: functional
[8] = system: ACHN; test: Growth inhibition of human ACHN cells at 10 uM after 48 hrs by single dose SRB assay; type: functional
[9] = system: UACC-62; test: Growth inhibition of human UACC62 cells at 10 uM after 48 hrs by single dose SRB assay; type: functional; conditions: UACC-62, 48 h, read-out: GI
[10] = system: NCI/ADR-RES; test: Growth inhibition of human NCI/ADR-RES cells at 10 uM after 48 hrs by single dose SRB assay; type: functional
[11] = system: HL-60(TB); test: Growth inhibition of human HL-60(TB) cells at 10 uM after 48 hrs by single dose SRB assay; type: functional
[12] = system: RPMI-8226; test: Growth inhibition of human RPMI8226 cells at 10 uM after 48 hrs by single dose SRB assay; type: functional
[13] = system: HCT-15; test: Growth inhibition of human HCT15 cells at 10 uM after 48 hrs by single dose SRB assay; type: functional; conditions: HCT-15, 48 h, read-out: GI
[14] = molecular target: T1, Protein farnesyltransferase (Homo sapiens, UniProt P49354+P49356); test: Inhibition of recombinant human FTase using dansyl-GCVLS as substrate at 100 uM after 15 mins by fluorimetric analysis; type: protein-complex assay
[15] = system: HCT166; test: (§1) Growth inhibition of human […] cells at 10 uM after 48 hrs by single dose SRB assay; type: functional
[16] = system: MDA-MB-231; test: Growth inhibition of human MDA-MB-231 cells at 10 uM after 48 hrs by single dose SRB assay; type: functional
[17] = system: NCI-H522; test: Growth inhibition of human NCI-H522 cells at 10 uM after 48 hrs by single dose SRB assay; type: functional; conditions: NCI-H522, 48 h, read-out: GI
[18] = system: UO-31; test: Growth inhibition of human UO31 cells at 10 uM after 48 hrs by single dose SRB assay; type: functional; conditions: UO-31, 48 h, read-out: GI
[19] = system: A498; test: Growth inhibition of human A498 cells at 10 uM after 48 hrs by single dose SRB assay; type: functional; conditions: A498, 48 h, read-out: GI
[20] = system: HT-29; test: Growth inhibition of human HT-29 cells at 10 uM after 48 hrs by single dose SRB assay; type: functional; conditions: HT-29, 48 h, read-out: GI
[21] = system: MOLT-4; test: Growth inhibition of human MOLT4 cells at 10 uM after 48 hrs by single dose SRB assay; type: functional; conditions: MOLT-4, 48 h, read-out: GI
[22] = system: EKVX; test: Growth inhibition of human EKVX cells at 10 uM after 48 hrs by single dose SRB assay; type: functional; conditions: read-out: GI
[23] = system: OVCAR-3; test: Growth inhibition of human OVCAR3 cells at 10 uM after 48 hrs by single dose SRB assay; type: functional
[24] = system: SNB-19; test: Growth inhibition of human SNB19 cells at 10 uM after 48 hrs by single dose SRB assay; type: functional
[25] = system: SN12C; test: Growth inhibition of human SN12C cells at 10 uM after 48 hrs by single dose SRB assay; type: functional
[26] = system: CAKI-1; test: Growth inhibition of human Caki1 cells at 10 uM after 48 hrs by single dose SRB assay; type: functional; conditions: CAKI-1, 48 h, read-out: GI
[27] = system: PC-3; test: Growth inhibition of human PC3 cells at 10 uM after 48 hrs by single dose SRB assay; type: functional; conditions: PC-3, 48 h, read-out: GI
[28] = system: NCI-H226; test: Growth inhibition of human NCI-H226 cells at 10 uM after 48 hrs by single dose SRB assay; type: functional; conditions: NCI-H226, 48 h, read-out: GI
[29] = system: HOP-92; test: Growth inhibition of human HOP92 cells at 10 uM after 48 hrs by single dose SRB assay; type: functional
[30] = system: SF-295; test: Growth inhibition of human SF295 cells at 10 uM after 48 hrs by single dose SRB assay; type: functional; conditions: SF-295, 48 h, read-out: GI
[31] = molecular target: T1, Protein farnesyltransferase; test: Inhibition of recombinant human FTase using dansyl-GCVLS as substrate after 15 mins by fluorimetric analysis; type: protein-complex assay
[32] = as §1; type: functional; conditions: read-out: GI

Row | Compound | inhibition of growth at 10 µM [2] [%] | inhibition of growth at 10 µM [5] [%] | inhibition of growth at 10 µM [9] [%] | growth inhibition (GI) [12] | inhibition of growth at 10 µM [13] [%] | inhibition [14] [%] | inhibition of growth at 10 µM [17] [%] | inhibition of growth at 10 µM [18] [%] | inhibition of growth at 10 µM [19] [%] | inhibition of growth at 10 µM [20] [%] | inhibition of growth at 10 µM [21] [%] | inhibition of growth at 10 µM [22] [%] | inhibition of growth at 10 µM [26] [%] | inhibition of growth at 10 µM [27] [%] | inhibition of growth at 10 µM [28] [%] | growth inhibition (GI) [29] | inhibition of growth at 10 µM [30] [%] | IC50 [31] [µM] | also measured
1 | CCOC(=O)c1cnn(CC(=O)N2c3ccccc3Sc3ccccc32)c1N | 15.3 | 6.9 | 6.3 | inactive | 25.4 | 24.8 | 31.9 | 13.3 | 11.8 | 13.2 | 7.6 | 5.3 | 16 | 21.3 | 8.1 | inactive | 6.7 | – | growth inhibition (GI) [1]: inactive; growth inhibition (GI) [3]: inactive; growth inhibition (GI) [4]: inactive; growth inhibition (GI) [6]: inactive; growth inhibition (GI) [7]: inactive; growth inhibition (GI) [8]: inactive; growth inhibition (GI) [10]: inactive; inhibition of growth at 10 µM ([11]; HL-60, 48 h, read-out: GI): 83.2%; growth inhibition (GI) [15]: inactive; growth inhibition (GI) [16]: inactive; growth inhibition (GI) [23]: inactive; growth inhibition (GI) [24]: inactive; growth inhibition (GI) [25]: inactive
2 | Cc1c2c(nn1CC(=O)N1c3ccccc3Sc3ccccc31)-c1ccccc1C2=O | 37.6 | 51.4 | 31.2 | inactive | 23 | 67.7 | 9.6 | 29.5 | 19.4 | 17.7 | 25.4 | 39.9 | 38.3 | 31 | 25.3 | inactive | 35.8 | 3.35 | inhibition of growth at 10 µM ([1]; read-out: GI): 12.1%; inhibition of growth at 10 µM ([3]; SW-620, 48 h, read-out: GI): 23.8%; inhibition of growth at 10 µM ([4]; read-out: GI): 54.8%; inhibition of growth at 10 µM ([6]; U-251, 48 h, read-out: GI): 24.8%; inhibition of growth at 10 µM ([7]; OVCAR-8, 48 h, read-out: GI): 28.2%; inhibition of growth at 10 µM ([8]; read-out: GI): 29.7%; inhibition of growth at 10 µM ([10]; read-out: GI): 33.5%; growth inhibition (GI) [11]: inactive; inhibition of growth at 10 µM [32]: 55.7%; inhibition of growth at 10 µM ([16]; MDA-MB-231, 48 h, read-out: GI): 27.8%; inhibition of growth at 10 µM ([23]; OVCAR-3, 48 h, read-out: GI): 29.7%; inhibition of growth at 10 µM ([24]; SNB-19, 48 h, read-out: GI): 35.7%; inhibition of growth at 10 µM ([25]; read-out: GI): 34.8%
3 | C/C(=N\NC(=O)CCN1c2ccccc2Sc2ccccc21)C1=C(O)c2ccccc2C1=O | – | – | – | – | – | 95.5 | – | – | – | – | – | – | – | – | – | – | – | 3.73 | –
